Assay results reported in PMC10380766, “Development of Hydrophobic Cell-Penetrating Stapled Peptides as Drug Carriers” (International Journal of Molecular Sciences, 2023).

Legend:
[1] = CD spectroscopy, secondary structure (R value); type: physicochemical; details: 10% acetonitrile in 20 mM phosphate buffer pH 7.4, peptide 50 µM, ratio of CD signal intensities at 222 and 208 nm
Procedure: CD measurements were performed to analyze the preferred secondary structures of the synthesized peptides F-1–F-4 (10% acetonitrile in 20 mM phosphate buffer, pH 7.4) (Figure 2). […] These characteristic Cotton effects indicated the presence of a helical structure in F-1. […] To further evaluate the dominant secondary structures of the peptides, a parameter called the R value (θ222/θ208) was calculated. The R value represents the ratio of the CD signal intensities at 222 nm and 208 nm, respectively. For the peptides F-1, F-2, F-3, and F-4, the R values were determined to be 0.72, 1.83, 0.95, and 1.58, respectively. Based on previous studies, these R values indicate that the dominant secondary structures of all the peptides were α-helices.
CD spectra were recorded with a JASCO J-1100 CD spectrometer using a 1.0 mm path length cell. The data are expressed in terms of [θ]; i.e., total molar ellipticity (deg cm^2 dmol^−1). Peptides were dissolved in 10% MeCN in 20 mM phosphate buffer solution at 50 µM concentrations. Each parameter was: wavelength: 190–260 nm; bandwidth: 1 nm; response: 1 s; speed: 50 nm min^−1; accumulations: 3 times; and path length: […].

[2] = test system: pDNA; assay: Displacement assay with dextran sulfate (gel retardation); type: physicochemical; details: N/P = 8, 100 ng pDNA, 30 min at 37 °C, agarose gel
Procedure: (§1) The intracellular uptake of Cy5-labeled pDNA complexed with peptides F-1–F-4 was evaluated in […] cells. The fluorescence intensity of Cy5 incorporated into […] was quantified using flow cytometry at 24 h after administration (Figure 5). […] The stability of the peptide/pDNA complex was then evaluated by adding the negatively charged competitive inhibitor, dextran sulfate.
Complex with 100 ng of pDNA and peptide at N/P ratio = 8 were incubated for 30 min at 37 °C in the presence of dextran sulfate (sodium salt, Wako, Japan) at various concentrations ranging 0, 0.05, 0.1, 0.5, and 1 mg/mL. After the incubation, the samples were analyzed on agarose gel and the gel was stained with SYBR Gold (Thermo Fisher Scientific, Waltham, MA, USA).
Figure S1. Cellular uptake of peptide/Cy5-pDNA complexes at N/P = 8 with HEK293 cells. Cellular uptake ability was determined by flow cytometry. The cells were excited with a 488 nm light from an LD laser for detecting FAM-p eptide. Error bars represent the mean±standard deviation, n = 4.
Dextran sulfate Dextran sulfate Dextran sulfate Dextran sulfate […]
Figure S2. Physicochemical characterization of peptide/pDNA complexes at N/P = 8 with dextran sulfate. Gel retardation assay for evaluation of the stability and the dissociation of the peptide/pDNA complexes upon treatment with dextran sulfate at different concentrations ranging from 0 to 1 mg/mL. […]

[3] = test system: HEK293 cells; assay: Cellular-uptake mechanism: endocytosis inhibitors and 4 °C; type: cell-based; details: peptide 5 µM, flow cytometry
Description: To inhibit specific endocytic pathways, three different inhibitors were used: amiloride, nystatin, and sucrose. Each inhibitor targets a distinct endocytic pathway: amiloride inhibits […] (a form of endocytosis where cells engulf fluid and solutes); nystatin inhibits caveolae-mediated endocytosis (a process involving small invaginations in the cell membrane called caveolae); and sucrose inhibits clathrin-mediated endocytosis (a mechanism in which the protein clathrin forms coated pits on the cell surface to internalize molecules). As a control, a peptide called nona-arginine (R9) with CF […] was used. This peptide is known to enter cells via endocytosis. The uptake of CF-R9 with that of the parent peptide F-1 and the stapled peptide F-3 was compared.
HEK293 cells were seeded in 24-well plates at a density of 200,000 cells/well and cultured in DMEM for 23 h. After the medium had been replaced with fresh medium containing 10% FBS in the absence or presence of amiloride (5 mM), sucrose (0.4 M), or nystatin (25 μg/mL), the cells were pre-incubated at 37 °C for 30 min. Then, the cells were treated with the relevant peptide (peptide concentration; 5 µM) and incubated for 30 min at 37 °C. […] Then, the cells were analyzed by a BD accuri C6 Plus flow cytometer (BD Bioscience, New Jersey). […]

[4] = test system: HEK293 cells; assay: Cellular uptake of peptide/Cy5-pDNA complexes by flow cytometry; type: cell-based; details: peptide/Cy5-pDNA complex at N/P = 8, HEK293 cells, flow cytometry 488 nm excitation, n = 4 (Figure S1)
Procedure: as §1
Figure 5 Cellular uptake of peptide/Cy5-pDNA complexes at N/P = 8 in HEK293 cells. The cellular uptake ability was determined by flow cytometry. The cells were excited with a 635 nm light for detecting Cy5-pDNA. Error bars represent the mean ± standard deviation, n = 4.
Each 1 mM peptide solution in DMSO and pDNA was dissolved separately in 10 mM Hepes buffer (pH 7.3). To form peptide/pDNA complexes, peptide solutions of various concentrations were added to the pDNA solution in 2-fold excess. The final pDNA concentration was adjusted to 33.3 mg/mL. After the complex solutions were stored at room temperature for 15 min, the complex solutions were added. […]
HEK293 cells were seeded on 24-well culture plates (100,000 cells/well) and incubated overnight in 500 μL of DMEM. […] The cell pellets obtained were suspended in PBS and the cells were analyzed by a BD accuri C6 Plus flow cytometer (BD Bioscience, New Jersey).
Figure S1. […] Cellular uptake ability was determined by flow cytometry. […]

[5] = Zeta-potential measurement of peptide/pDNA complexes; type: physicochemical; details: peptide/pDNA complex, laser-Doppler electrophoresis, 10 mM Hepes pH 7.3, 25 °C, mean ± SD of 3 measurements
Procedure: (§2) The ability of peptides F-1–F-4 to deliver pDNA was evaluated using complexes between the peptides and pDNA in 10 mM Hepes buffer (pH 7.3). The zeta potentials and sizes of the peptide/pDNA complexes prepared at various charge ratios were determined (Table 2). The size of the F-1 peptide/pDNA complexes at a charge ratio of 2 was 3364 nm, and the sizes decreased with an increase in the charge ratios (Table 2). The sizes of the peptide/pDNA complexes were in the order of several hundred nm, which is considered to be a useful size for the delivery of pDNA, except for the complex with F-1 at N/P = 2, which was defined as the residual molar ratio of the amino groups in polycations of peptides (N) to the phosphate groups in pDNA (P). […] Thus, we examined the complexes of F-1–F-4 at N/P = 8 to evaluate the effect of the stapling of TP10 on the ability to deliver pDNA.
(§3) Each 1 mM peptide solution in DMSO and pDNA was dissolved separately in 10 mM Hepes buffer (pH 7.3). To form peptide/pDNA complexes, peptide solutions of various concentrations were added to the pDNA solution in 2-fold excess. The final pDNA concentration was adjusted to […]. After the complex solutions were stored at room temperature for 15 min, the complex solutions were added. The charge ratio was defined as the residual molar ratio of the amino group of amino acid in the peptide to the phosphate group in the pDNA.
(§4) The zeta-potentials of the peptide/pDNA complexes in 10 mM Hepes buffer (pH 7.3) were evaluated by the laser-Doppler electrophoresis method using Nano ZS (ZEN3600, Malvern Instruments, Ltd., Malvern, UK) with a He–Ne ion laser (633 nm). Light scattering data were obtained at a detection angle of 173° and temperature of 25 °C, and were subsequently analyzed by the cumulant method to obtain the hydrodynamic diameters, polydispersity indices (PDI) (m/G^2) and zeta-potential of the complexes. Results were presented as the mean and standard deviation of 3 measurements (Table 2).

[6] = DLS measurement of peptide/pDNA complexes (size, PDI); type: physicochemical; details: peptide/pDNA complex, mean ± SD of 3 measurements; for Size: cumulant method
Procedure: as §2, §3, §4

[7] = N/P ratio 2, 10 mM Hepes pH 7.3, 25 °C
[8] = N/P ratio 4, 10 mM Hepes pH 7.3, 25 °C
[9] = N/P ratio 8, 10 mM Hepes pH 7.3, 25 °C

With “CF-XAGYLLGKINLKALAAS5*AKKS5*L (sidechain bridge or staple) [F-3, C-terminal stapled TP10 analog, Leu and Ile replaced with S5 residues, CF-labelled]” as the substance, how does the “R value (θ222/θ208)” value [1] read?
Its value is 0.95.

And the “concentration of dextran sulfate at which the peptide/pDNA complex dissociated” value ([2]; dextran sulfate 0, 0.05, 0.1, 0.5, 1 mg/mL, SYBR Gold (Figure S2))?
The value was 0.5 mg/mL.

What about the “stability of the peptide/pDNA complex against dextran sulfate” value ([2]; dextran sulfate 0-1 mg/mL) of the same substance?
Its value is “less stable than the other complexes”.

What about the “cellular uptake when incubated at 4 °C” value ([3]; 30 min at 4 °C compared with 37 °C) of the same substance?
The value was “significantly inhibited”.

And the “cellular uptake when treated with endocytosis inhibitors” value ([3]; 30 min at 37 °C after 30 min pre-incubation with amiloride (5 mM), sucrose (0.4 M) or nystatin (25 μg/mL), n=3)?
The value was “significantly inhibited”.

What about the “fluorescence from peptide detected by CF after adding peptide/Cy5-pDNA complex” value [4] of the same substance?
Its value is “strongest fluorescence”.

What about the Zeta-Potential ([5]; N/P ratio 2) of the same substance?
Its Zeta-Potential is 22.9 ± 1.1 mV.

And the Zeta-Potential ([5]; N/P ratio 4)?
The Zeta-Potential was 18.0 ± 1.7 mV.

And the Zeta-Potential ([5]; N/P ratio 8)?
The Zeta-Potential was 20.6 ± 3.0 mV.

And the Size [6, 7]?
The Size was 391 ± 8 nm.

What about the PDI [6, 7] of the same substance?
The PDI was 0.417 ± 0.049.

What about the Size [6, 8] of the same substance?
The Size was 352 ± 57 nm.

And the PDI [6, 8]?
The PDI was 0.366 ± 0.054.

And the Size [6, 9]?
Its Size is 324 ± 53 nm.

And the PDI [6, 9]?
Its PDI is 0.399 ± 0.083.
